Measured values reported in article PMC10850954, “HDAC6/aggresome processing pathway importance for inflammasome formation is context-dependent” (The Journal of Biological Chemistry, 2024).

Key:
Test in all cases: In vitro enzymatic assay with purified HDACs
Assay type in all cases: biochemical
HDAC3 = HDAC3 (Homo sapiens, UniProt O15379)
Description: (§1) To extend these observations in other cell settings, we next made use of a novel HDAC6 proteolysis targeting chimera (PROTAC) degrader, XY-07-35 ([19]). Treatment of cells with XY-07-35 leads to recruitment of the E3 ligase cereblon (CRBN) to HDAC6, ubiquitination, and subsequent proteasomal degradation of HDAC6 (Fig. 3A).
(§2) Figure 3 Effect of […] mediated HDAC6 degradation on NLRP3 inflammasome activation in PBMCs.A, schematic of the mode of action of an HDAC6 degrader. The PROTAC engages both HDAC6 and the E3 ligase cereblon (CRBN), which then leads to ubiquitination and degradation of HDAC6. B, chemical structure of the HDAC6 degrader XY-07-35 and of the negative control XY-07-191 which no longer recruits CRBN. C, in vitro enzymatic assay of compound XY-07-35 on the activity of different HDACs. IC50 for each enzyme is shown. D, XY-07-35 mediated HDAC6 degradation in PBMCs. PBMCs (without or with LPS priming for 4 h) were treated with the indicated compounds and HDAC6 levels were detected by immunoblotting with an anti-HDAC6 antibody. Detection of actin was used as a control for loading. CGP, CGP084892 (Caspase-1 inhibitor); AFN700 is an inhibitor of the NF-kB pathway (IKK inhibitor). E, HDAC6 degradation impact on IL-1β release in PBMCs following MSU 200 μg/ml (5 h), nigericin 2 μM (2 h) or ATP 3 mM (0.5 h) treatment. Cells were first primed with 0.2 ng/ml LPS for 4 h at 37 °C, then treated with MSU, nigericin, and ATP as indicated. The graphs below show the results of three independent experiments using the inducers as indicated. NP3-948 is an inhibitor of the NLRP3 inflammasome. TEXT PRINTED IN THE PICTURE: (C) XY-07-035: Compound IC50 (μM): 1.04 (Target: HDAC1); Compound IC50 (μM): 2.47 (Target: HDAC2); Compound IC50 (μM): 1.44 (Target: HDAC3); Compound IC50 (μM): 5.75 (Target: HDAC5); Compound IC50 (μM): 0.0485 (Target: HDAC6); Compound IC50 (μM): 0.621 (Target: HDAC8) DOUBTS OF THE COPYIST ABOUT THIS PICTURE: XY-07-035, HDAC4, HDAC7 and HDAC9: the table prints only dashes (--), no value, so these rows are left out

HDAC1 = HDAC1 (Homo sapiens, UniProt Q13547)
HDAC1, sequence (Q13547 whole entry, species assumed): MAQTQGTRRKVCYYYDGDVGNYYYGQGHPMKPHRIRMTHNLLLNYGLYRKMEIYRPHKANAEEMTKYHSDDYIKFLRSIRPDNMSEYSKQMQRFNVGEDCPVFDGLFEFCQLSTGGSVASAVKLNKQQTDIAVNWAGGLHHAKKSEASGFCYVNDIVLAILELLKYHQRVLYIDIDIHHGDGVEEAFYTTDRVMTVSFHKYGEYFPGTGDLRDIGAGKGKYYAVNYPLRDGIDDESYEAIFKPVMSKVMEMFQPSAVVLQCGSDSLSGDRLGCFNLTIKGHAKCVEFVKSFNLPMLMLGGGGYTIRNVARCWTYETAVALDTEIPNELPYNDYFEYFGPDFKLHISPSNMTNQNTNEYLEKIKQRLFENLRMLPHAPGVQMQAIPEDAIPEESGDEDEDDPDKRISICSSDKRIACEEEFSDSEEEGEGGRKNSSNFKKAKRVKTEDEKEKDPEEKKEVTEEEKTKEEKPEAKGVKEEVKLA
Description: as §1, §2

HDAC5 = HDAC5 (Homo sapiens, UniProt Q9UQL6)
HDAC5, sequence (Q9UQL6 whole entry, species assumed): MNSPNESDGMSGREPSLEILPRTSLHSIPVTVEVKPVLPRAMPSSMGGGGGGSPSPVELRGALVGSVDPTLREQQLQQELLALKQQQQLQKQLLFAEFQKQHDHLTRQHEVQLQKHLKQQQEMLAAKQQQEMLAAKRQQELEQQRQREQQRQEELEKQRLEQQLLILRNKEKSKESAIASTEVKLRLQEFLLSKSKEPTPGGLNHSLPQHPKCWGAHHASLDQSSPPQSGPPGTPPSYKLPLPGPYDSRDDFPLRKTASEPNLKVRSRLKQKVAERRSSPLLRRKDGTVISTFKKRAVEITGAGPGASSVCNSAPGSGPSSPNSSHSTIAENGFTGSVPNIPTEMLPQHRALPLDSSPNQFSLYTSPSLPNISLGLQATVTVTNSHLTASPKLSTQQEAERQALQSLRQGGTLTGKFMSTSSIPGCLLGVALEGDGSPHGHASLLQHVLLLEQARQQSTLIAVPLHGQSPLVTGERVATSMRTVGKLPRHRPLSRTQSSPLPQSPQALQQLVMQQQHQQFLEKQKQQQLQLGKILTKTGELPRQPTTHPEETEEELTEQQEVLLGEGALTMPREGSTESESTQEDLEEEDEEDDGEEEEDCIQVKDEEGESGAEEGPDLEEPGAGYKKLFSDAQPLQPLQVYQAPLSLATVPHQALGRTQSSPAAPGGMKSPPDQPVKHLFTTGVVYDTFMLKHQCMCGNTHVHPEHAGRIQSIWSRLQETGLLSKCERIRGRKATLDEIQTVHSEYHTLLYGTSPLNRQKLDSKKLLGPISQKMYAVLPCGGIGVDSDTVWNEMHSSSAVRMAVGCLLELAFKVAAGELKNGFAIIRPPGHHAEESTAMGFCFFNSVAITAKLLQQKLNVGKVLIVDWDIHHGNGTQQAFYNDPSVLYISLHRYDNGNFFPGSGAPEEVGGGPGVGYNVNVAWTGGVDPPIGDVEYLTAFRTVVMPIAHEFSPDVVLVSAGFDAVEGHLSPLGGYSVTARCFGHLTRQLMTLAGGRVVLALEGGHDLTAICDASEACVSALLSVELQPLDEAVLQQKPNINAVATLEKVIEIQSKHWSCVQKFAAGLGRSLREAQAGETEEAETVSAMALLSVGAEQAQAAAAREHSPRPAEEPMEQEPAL
Description: as §1, §2

HDAC8 = molecular target: T1, HDAC8 (Homo sapiens, UniProt Q9BY41)
T1 sequence (Q9BY41 1-377): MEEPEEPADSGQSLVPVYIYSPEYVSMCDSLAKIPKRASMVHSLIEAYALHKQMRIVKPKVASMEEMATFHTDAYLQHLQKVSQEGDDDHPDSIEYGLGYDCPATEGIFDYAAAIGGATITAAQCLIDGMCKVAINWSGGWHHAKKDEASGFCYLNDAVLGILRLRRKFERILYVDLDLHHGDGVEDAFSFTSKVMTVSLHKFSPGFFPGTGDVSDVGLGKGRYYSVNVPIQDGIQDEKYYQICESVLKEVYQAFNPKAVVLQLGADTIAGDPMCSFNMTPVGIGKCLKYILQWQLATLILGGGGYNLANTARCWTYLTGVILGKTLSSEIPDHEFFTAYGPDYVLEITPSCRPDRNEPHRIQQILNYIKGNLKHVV
Description: as §1, §2

other HDACs = other HDACs (than HDAC6 and HDAC8)
Description: as §1, §2

HDAC6 = molecular target: T2, HDAC6 (Homo sapiens, UniProt Q9UBN7)
T2 sequence (Q9UBN7 1-1215): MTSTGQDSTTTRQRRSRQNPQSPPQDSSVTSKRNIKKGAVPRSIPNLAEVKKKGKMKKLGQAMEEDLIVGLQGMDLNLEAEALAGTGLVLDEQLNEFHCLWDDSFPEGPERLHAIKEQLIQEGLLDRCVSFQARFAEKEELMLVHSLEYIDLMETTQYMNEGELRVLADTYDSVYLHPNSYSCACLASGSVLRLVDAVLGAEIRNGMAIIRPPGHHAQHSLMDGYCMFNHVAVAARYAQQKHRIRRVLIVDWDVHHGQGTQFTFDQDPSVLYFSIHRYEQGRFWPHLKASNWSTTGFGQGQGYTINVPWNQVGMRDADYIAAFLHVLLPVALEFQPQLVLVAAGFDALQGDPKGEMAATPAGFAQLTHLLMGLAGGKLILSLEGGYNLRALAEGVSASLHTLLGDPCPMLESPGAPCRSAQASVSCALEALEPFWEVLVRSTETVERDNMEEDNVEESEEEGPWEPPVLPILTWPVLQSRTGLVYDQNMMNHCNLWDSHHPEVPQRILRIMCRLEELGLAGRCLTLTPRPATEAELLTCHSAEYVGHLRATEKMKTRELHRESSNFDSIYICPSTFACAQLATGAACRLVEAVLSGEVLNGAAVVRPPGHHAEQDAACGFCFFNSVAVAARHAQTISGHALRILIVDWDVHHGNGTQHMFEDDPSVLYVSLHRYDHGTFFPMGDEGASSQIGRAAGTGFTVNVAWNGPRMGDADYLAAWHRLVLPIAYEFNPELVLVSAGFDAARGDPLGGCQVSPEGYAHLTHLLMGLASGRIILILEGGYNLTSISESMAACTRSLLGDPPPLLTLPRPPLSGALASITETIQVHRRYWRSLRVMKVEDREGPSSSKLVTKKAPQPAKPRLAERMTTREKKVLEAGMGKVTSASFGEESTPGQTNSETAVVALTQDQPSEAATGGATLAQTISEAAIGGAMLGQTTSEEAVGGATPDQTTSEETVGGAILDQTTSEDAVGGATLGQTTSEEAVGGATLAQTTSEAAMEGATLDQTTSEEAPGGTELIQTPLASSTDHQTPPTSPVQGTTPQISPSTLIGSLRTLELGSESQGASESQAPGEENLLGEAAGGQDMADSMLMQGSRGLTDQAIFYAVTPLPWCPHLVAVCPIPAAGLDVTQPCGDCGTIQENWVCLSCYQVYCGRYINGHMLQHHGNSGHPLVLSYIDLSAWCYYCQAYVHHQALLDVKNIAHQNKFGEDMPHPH
Description: as §1, §2

HDAC2 = HDAC2 (Homo sapiens, UniProt Q92769)
HDAC2, sequence (Q92769 whole entry, species assumed): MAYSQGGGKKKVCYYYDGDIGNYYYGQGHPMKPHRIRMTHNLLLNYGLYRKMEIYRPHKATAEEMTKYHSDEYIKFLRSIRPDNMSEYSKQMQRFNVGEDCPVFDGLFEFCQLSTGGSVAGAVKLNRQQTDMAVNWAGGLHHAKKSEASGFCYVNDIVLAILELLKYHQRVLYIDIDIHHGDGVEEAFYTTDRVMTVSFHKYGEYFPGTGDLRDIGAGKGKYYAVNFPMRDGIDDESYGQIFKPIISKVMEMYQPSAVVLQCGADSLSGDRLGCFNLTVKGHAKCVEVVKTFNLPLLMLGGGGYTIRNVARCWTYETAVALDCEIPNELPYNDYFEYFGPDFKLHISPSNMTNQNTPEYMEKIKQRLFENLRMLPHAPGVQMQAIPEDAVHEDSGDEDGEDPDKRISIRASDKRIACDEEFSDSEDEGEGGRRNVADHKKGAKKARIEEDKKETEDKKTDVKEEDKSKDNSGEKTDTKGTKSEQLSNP
Description: as §1, §2

HDAC3, sequence (O15379 whole entry, species assumed): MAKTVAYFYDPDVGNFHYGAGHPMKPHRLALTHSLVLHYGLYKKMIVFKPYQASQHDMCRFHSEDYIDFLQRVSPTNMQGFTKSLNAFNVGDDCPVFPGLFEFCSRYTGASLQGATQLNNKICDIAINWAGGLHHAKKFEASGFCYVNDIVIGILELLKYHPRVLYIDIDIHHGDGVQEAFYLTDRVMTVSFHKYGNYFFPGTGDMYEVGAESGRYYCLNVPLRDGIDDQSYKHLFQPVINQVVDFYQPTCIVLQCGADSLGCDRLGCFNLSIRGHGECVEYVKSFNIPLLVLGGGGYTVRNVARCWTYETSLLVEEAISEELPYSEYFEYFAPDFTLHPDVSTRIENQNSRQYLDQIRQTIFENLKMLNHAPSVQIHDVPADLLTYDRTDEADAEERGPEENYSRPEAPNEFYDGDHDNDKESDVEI
HDAC3, sequence (Q9Y618 395-489 partner limits assumed, species assumed): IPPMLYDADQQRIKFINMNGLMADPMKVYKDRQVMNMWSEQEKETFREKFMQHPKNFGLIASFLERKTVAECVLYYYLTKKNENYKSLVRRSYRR

SMILES: CN(C(=O)CCCNc1cccc2c1C(=O)N(C1CCC(=O)NC1=O)C2=O)c1ccc(NC(=O)CCCCCCC(=O)NO)cc1 (stereo not shown) [XY-07-35]
- IC50 (HDAC3): 1440 nM
- IC50 (HDAC1): 1040 nM
- IC50 (HDAC5): 5750 nM
- IC50 (HDAC8): 621 nM
- IC50 (other HDACs): 1040 to 5750 nM
- IC50 (HDAC6): 48.5 nM
- IC50 (HDAC2): 2470 nM
